In patent publication US9877940B2, “Anthraquinone compounds and their uses” (DUNDALK INSTITUTE OF TECHNOLOGY, priority 2010, dated 2018):

Molecular target: T1, BK channels (Oryctolagus cuniculus, UniProt Q9BG98)
T1 construct: wherein the native BK channels were more sensitive to Ca^2+; from tissue
Assay: Single channel recordings, inside-out patch clamp, voltage ramps, isolated smooth muscle cells of the rabbit bladder
Type: cell-based
Settings: for ΔV1/2 (mV) in 100 nm Ca^2+: 10 μM compound, inside-out patch; for effect on BK channel activity, in words (SAR discussion based on V1/2 data): inside out patches on rabbit smooth muscle cells
Description: All experiments were approved by the Dundalk Institute of Technology Animal Care and Use Committee. […] The urinary bladder and most proximal 1.5 cm of the urethra was removed and placed in Krebs solution. Strips of bladder tissue, 0.5 cm in width were dissected, cut into 1 mm^3 pieces and stored in Ca^2+-free Hanks' solution for 30 min prior to cell dispersal. Tissue pieces were incubated in dispersal medium containing (per 5 ml) of Ca^2+-free Hanks' solution: 15 mg collagenase (Sigma type 1A), 1 mg protease (Sigma type XXIV), 10 mg bovine serum albumin (Sigma) and 10 mg trypsin inhibitor (Sigma) for 10-15 min at 37° C. Tissue was then transferred to Ca^2+-free Hanks' solution and stirred for a further 10-15 min to release single smooth muscle cells. These were plated in Petri dishes containing 100 μM Ca^2+ Hanks' solution and stored at 4° C. for use within 8 h. During experiments, the dish containing the cells was continuously perfused with Hanks' solution at 36±1° C. Additionally the cell under study was continuously superfused by means of a custom built close delivery system with a pipette of tip diameter 200 μm placed approximately 300 μm from the cell. The high K^+ solution in the close delivery system could be switched to a drug-containing solution with a dead space time of less than 5 s.
For whole cell recordings pipettes were pulled from borosilicate glass capillary tubing (1.5 mm outer diameter, 1.17 mm inner diameter; Clark Medical Instruments) to a tip of diameter approximately 1-1.5 μm and resistance of 2-4 Mohms. For single channel recordings, pipettes were pulled from borosilicate glass capillary tubing (1.5 mm outer diameter, 0.8 mm inner diameter; Clark Medical Instruments) and fire polished before use. Voltage clamp commands were delivered via an Axopatch 1D or Axon 200B patch clamp amplifiers (Axon Instruments) and membrane currents were recorded by a 12 bit AD/DA converter (Axodata 1200 or Labmaster, Scientific Solutions) interfaced to an Intel computer running pCLAMP software.
All values in (mM): KCl, 140. Glucose, 10, EGTA 1 and HEPES, 10. For free Ca^2+ greater than 300 nM: All values in (mM): KCl, 140. Glucose, 10, H-EDTA 1 and HEPES, 10. The same solution composition is used in the bath as in the patch pipette for these experiments except that the pipette solution contained 100 nM Ca^2+.
In single channel experiments voltage commands were applied using pClamp ramped potentials. This allowed more efficient measurement of slope conductance and channel activation than conventional step depolarisations. Activation curves were calculated by averaging current responses to 15 potential ramps and dividing each data point of the averaged current by the single channel amplitude at that holding potential, after leakage current correction. […] This analysis provides a continuous recording of the number of open channels multiplied by the open probability (NPo) over the entire voltage range. To obtain values for the steepness of the voltage-dependent activation and half-maximal activation voltage, activation curves were fitted with Boltzman functions of the form: NPo=n/{1+exp[−K(V−V1/2)]} where N is the number of channels in the patch, n is the maximal NPo level, K^−1 is the steepness of the voltage-dependent activation (change in potential necessary to cause an e-fold increase in activation) and V1/2 is the voltage at which there is half-maximal activation. Again, all of the experiments were carried out at 36±1° C.
The patches were held at a potential of −100 mV and voltage ramps were then applied from −100 mV up to +100 mV over 2 s.
Patches were held at −100 mV and ramped through to +100 mV and each sweep was repeated 15 times. The same protocol was repeated after the patch was incubated in 1 μM Ca^2+.

T1 sequence (Q9BG98 whole entry): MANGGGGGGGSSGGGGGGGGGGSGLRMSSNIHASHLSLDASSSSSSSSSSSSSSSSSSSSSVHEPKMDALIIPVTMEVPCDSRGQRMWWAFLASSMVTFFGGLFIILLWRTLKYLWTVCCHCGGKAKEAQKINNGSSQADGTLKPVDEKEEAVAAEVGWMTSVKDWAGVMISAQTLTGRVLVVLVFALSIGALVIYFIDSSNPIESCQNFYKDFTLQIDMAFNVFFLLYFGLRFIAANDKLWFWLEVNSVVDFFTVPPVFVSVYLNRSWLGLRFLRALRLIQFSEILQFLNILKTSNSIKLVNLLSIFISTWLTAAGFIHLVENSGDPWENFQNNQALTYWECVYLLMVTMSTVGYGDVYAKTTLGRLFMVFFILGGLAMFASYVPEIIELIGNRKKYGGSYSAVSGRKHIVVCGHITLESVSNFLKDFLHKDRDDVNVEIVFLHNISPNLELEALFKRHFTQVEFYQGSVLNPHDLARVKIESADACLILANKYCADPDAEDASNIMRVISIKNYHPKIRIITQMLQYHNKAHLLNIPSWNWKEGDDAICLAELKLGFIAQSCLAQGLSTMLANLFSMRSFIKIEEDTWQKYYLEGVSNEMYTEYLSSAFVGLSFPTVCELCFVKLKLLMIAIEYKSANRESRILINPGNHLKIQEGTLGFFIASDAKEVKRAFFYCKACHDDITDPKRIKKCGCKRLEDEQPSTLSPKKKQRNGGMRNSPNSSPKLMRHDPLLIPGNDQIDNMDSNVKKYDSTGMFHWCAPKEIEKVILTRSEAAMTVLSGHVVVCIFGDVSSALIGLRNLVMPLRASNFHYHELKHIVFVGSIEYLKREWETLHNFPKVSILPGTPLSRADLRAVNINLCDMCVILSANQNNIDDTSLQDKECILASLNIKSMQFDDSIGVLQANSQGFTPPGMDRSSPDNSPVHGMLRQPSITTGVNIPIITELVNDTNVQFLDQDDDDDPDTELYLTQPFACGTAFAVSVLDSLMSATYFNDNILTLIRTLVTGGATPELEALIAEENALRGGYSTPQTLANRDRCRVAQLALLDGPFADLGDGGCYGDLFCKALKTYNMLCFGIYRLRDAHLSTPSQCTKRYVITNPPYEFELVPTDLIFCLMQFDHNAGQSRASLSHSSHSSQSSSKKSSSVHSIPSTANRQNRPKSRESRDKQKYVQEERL

Structure (SMILES) | ΔV1/2 (mV) in 100 nm Ca^2+ (Table 1, V1/2 control vs drug) | effect on BK channel activity, in words (SAR discussion based on V1/2 data) | other results
Nc1c(S(=O)(=O)[O-])cc(NC2CCCCC2)c2c1C(=O)c1ccccc1C2=O.[Na+] [Acid Blue 62, sodium 1-amino-4-(cyclohexylamino)-9,10-dioxo-9,10-dihydroanthracene-2-sulfonate] | −54.37 mV | – | –
Nc1c(S(=O)(=O)O)cc(Br)c2c1C(=O)c1ccccc1C2=O [Bromaminic acid, reference compound] | – | inhibitory effect | –
C=C(C)[C@H]1O[C@H]2CC[C@@]3(C)[C@@](O)(CC[C@H]4[C@@H]5OC(C)(C)[C@H]6C[C@@H]7C(=C)Cc8c(Cl)cc9[nH]c(c5c9c8[C@@]76O)[C@@]43C)[C@@]23O[C@H]3[C@H]1O [Penitrem A, reference compound] | – | – | effect on single channel openings (100 nM, 1 μM Ca2+, voltage ramp): abolished the single channel openings
Nc1c(S(=O)(=O)[O-])cc(NC2CCCC2)c2c1C(=O)c1ccccc1C2=O.[Na+] [SR-5-8, sodium 1-amino-4-(cyclopentylamino)-9,10-dioxo-9,10-dihydroanthracene-2-sulfonate] | −24.24 mV | – | –
COc1ccccc1Nc1cc(S(=O)(=O)[O-])c(N)c2c1C(=O)c1ccccc1C2=O.[Na+] [SR-5-12, sodium 1-amino-4-(2-methoxyphenylamino)-9,10-dioxo-9,10-dihydroanthracene-2-sulfonate] | −54.1 mV | – | –
Nc1c(S(=O)(=O)[O-])cc(Nc2cc(F)cc(F)c2)c2c1C(=O)c1ccccc1C2=O.[Na+] [SR-5-14, sodium 1-amino-4-(3,5-difluorophenylamino)-9,10-dioxo-9,10-dihydroanthracene-2-sulfonate] | −24.2 mV | – | –
Nc1c(S(=O)(=O)[O-])cc(Nc2cccc(F)c2)c2c1C(=O)c1ccccc1C2=O.[Na+] [SR-5-15, sodium 1-amino-4-(3-fluorophenylamino)-9,10-dioxo-9,10-dihydroanthracene-2-sulfonate] | −28.4 mV | – | –
Nc1c(S(=O)(=O)[O-])cc(Nc2cccc(S(=O)(=O)O)c2)c2c1C(=O)c1ccccc1C2=O.[Na+] [SR-5-18, sodium 1-amino-9,10-dioxo-4-(3-sulfophenylamino)-9,10-dihydroanthracene-2-sulfonate] | −23.2 mV | decreases the activity dramatically | –
Cc1cccc(Nc2cc(S(=O)(=O)[O-])c(N)c3c2C(=O)c2ccccc2C3=O)c1.[Na+] [SR-5-26, sodium 4-(m-toluidino)-1-amino-9,10-dioxo-9,10-dihydroanthracene-2-sulfonate] | −53.5 mV | – | –
Nc1c(S(=O)(=O)[O-])cc(Nc2ccc(F)c(C(F)(F)F)c2)c2c1C(=O)c1ccccc1C2=O.[Na+] [SR-5-28, sodium 1-amino-4-(4-fluoro-3-(trifluoromethyl)phenylamino)-9,10-dioxo-9,10-dihydroanthracene-2-sulfonate] | −83.2 mV | – | –
CCc1cccc(Nc2cc(S(=O)(=O)[O-])c(N)c3c2C(=O)c2ccccc2C3=O)c1.[Na+] [SR-5-31, sodium 1-amino-4-(3-ethylphenylamino)-9,10-dioxo-9,10-dihydroanthracene-2-sulfonate] | −87.1 mV | – | –
Nc1c(S(=O)(=O)[O-])cc(NC2CCCCCC2)c2c1C(=O)c1ccccc1C2=O.[Na+] [SR-5-32, sodium 1-amino-4-(cycloheptylamino)-9,10-dioxo-9,10-dihydroanthracene-2-sulfonate] | −61.1 mV | – | –
Nc1c(S(=O)(=O)[O-])cc(Nc2cccc(OC(F)(F)F)c2)c2c1C(=O)c1ccccc1C2=O.[Na+] [SR-5-34, sodium 1-amino-9,10-dioxo-4-(3-(trifluoromethoxy)phenylamino)-9,10-dihydroanthracene-2-sulfonate] | −84.0 mV | – | –
Nc1c(S(=O)(=O)[O-])cc(Nc2ccc(Cc3ccccc3)cc2)c2c1C(=O)c1ccccc1C2=O.[Na+] [SR-5-37, sodium 1-amino-4-(4-benzylphenylamino)-9,10-dioxo-9,10-dihydroanthracene-2-sulfonate] | −77.8 mV | BK channel openers | –
Nc1c(S(=O)(=O)[O-])cc(Nc2ccc(Cl)c(C(F)(F)F)c2)c2c1C(=O)c1ccccc1C2=O.[Na+] [SR-5-40, sodium 1-amino-4-(4-chloro-3-(trifluoromethyl)phenylamino)-9,10-dioxo-9,10-dihydroanthracene-2-sulfonate] | −97.8 mV | – | –
Cc1ccc(Nc2cc(S(=O)(=O)[O-])c(N)c3c2C(=O)c2ccccc2C3=O)cc1C(F)(F)F.[Na+] [SR-5-44, sodium 1-amino-4-(4-methyl-3-(trifluoromethyl)phenylamino)-9,10-dioxo-9,10-dihydroanthracene-2-sulfonate] | −145.4 mV | – | –
Nc1c(S(=O)(=O)[O-])cc(Nc2cccc(O)c2)c2c1C(=O)c1ccccc1C2=O.[Na+] [SR-5-53, sodium 1-amino-4-((3-hydroxyphenyl)amino)-9,10-dioxo-9,10-dihydroanthracene-2-sulfonate] | – | – | ΔV1/2 (mV) in 100 nm Ca^2+ (Table 2): −44.1 mV
CC(C)c1cccc(Nc2cc(S(=O)(=O)[O-])c(N)c3c2C(=O)c2ccccc2C3=O)c1.[Na+] [SR-5-63, sodium 1-amino-4-((3-isopropylphenyl)amino)-9,10-dioxo-9,10-dihydroanthracene-2-sulfonate] | – | BK channel agonists | ΔV1/2 (mV) in 100 nm Ca^2+ (Table 2): −113.1 mV
Nc1c(S(=O)(=O)[O-])cc(Nc2ccc3c(c2)CCC3)c2c1C(=O)c1ccccc1C2=O.[Na+] [SR-5-64, sodium 1-amino-4-((2,3-dihydro-1H-inden-5-yl)amino)-9,10-dioxo-9,10-dihydroanthracene-2-sulfonate] | – | – | ΔV1/2 (mV) in 100 nm Ca^2+ (Table 2): −87.6 mV
Nc1c(S(=O)(=O)[O-])cc(Nc2cccc3c2CCCC3)c2c1C(=O)c1ccccc1C2=O.[Na+] [SR-5-65, sodium 1-amino-9,10-dioxo-4-((5,6,7,8-tetrahydronaphthalen-1-yl)amino)-9,10-dihydroanthracene-2-sulfonate] | – | potent BK channel activator | ΔV1/2 (mV) in 100 nm Ca^2+ (Table 2): −116.2 mV
Nc1c(S(=O)(=O)[O-])cc(Nc2cccc3ccccc23)c2c1C(=O)c1ccccc1C2=O.[Na+] [SR-5-66] | – | potency was dropped substantially | ΔV1/2 (mV) in 100 nm Ca^2+ (Table 2): −53.4 mV
Nc1c(S(=O)(=O)[O-])cc(Nc2cccc(Cc3ccccc3)c2)c2c1C(=O)c1ccccc1C2=O.[Na+] [SR-5-68, sodium 1-amino-4-((3-benzylphenyl)amino)-9,10-dioxo-9,10-dihydroanthracene-2-sulfonate] | – | BK channel agonists | ΔV1/2 (mV) in 100 nm Ca^2+ (Table 2): −120.0 mV
